Experimental data: patent US9522921B2, “Photochromic spirooxazine compounds” (Sabic Global Technologies, B.V., priority 2015, dated 2016)

Assay: Absorption spectrum in toluene upon irradiation with UV-A radiation
Format: physicochemical
Text: The properties of the compound characterized by Structure A were investigated.

- color displayed upon irradiation (upon irradiation with UV-A radiation): bluish-green color
- maximum absorption (upon irradiation with UV-A radiation (open merocyanine form)): 658 nm
SMILES: CN1c2ccccc2C(C)(C)C12C=Nc1cc(N(c3ccccc3)c3ccc4ccccc4c3)c3ccccc3c1O2 (centres unmarked) [Structure A, 1,3,3-trimethyl-N-(naphthalen-2-yl)-N-phenylspiro[indoline-2,2′-naphtho[1,2-b][1,4]oxazin]-6′-amine]
